Measurements published in patent US20090131528A1, “SALT” (priority 2006, published 2009).
Counter-ions that a name gives are not always drawn.

Key:
[1] = Dynamic vapour sorption (DVS-1), isothermal water absorption or loss; format: physicochemical; conditions: for Change in Mass (%) Desorption / Change in Mass (%) Sorption: 25° C., 2 hours after equilibration
Excerpt: A clear characterisation of this property is achieved by means of isothermal measurements over predetermined time intervals and predetermined relative humidity using dynamic vapour sorption (DVS-1 from the company Surface Measurement Systems LTD, Marlow, Buckinghamshire, UK). […] The measurement error of this sorption method based on thermogravimetry is about 0.1%.

[2] = 1-Week Chemical Stability Test, total impurities by HPLC-UV 230 nm; format: physicochemical
Excerpt: (§1) The exceptional stability of the nitrate salt of aliskiren towards water may also be shown in stability tests.

[3] = Stability test towards water, water content on storage; format: physicochemical; conditions: open container and sealed ampoule, four weeks at 40° C. and 75% relative humidity
Excerpt: as §1

[4] = Hygroscopicity, general statement; format: physicochemical
[5] = physchem
Excerpt: The active ingredient aliskiren is the free base which is described specifically in EP 678503 A and it has one basic group, the amino group in position 5. […] Accordingly, one acidic group can bind to the nitrogen lone pairs of the amino group.

COCCCOc1cc(C[C@@H](C[C@H](N)[C@@H](O)C[C@H](C(=O)NCC(C)(C)C(N)=O)C(C)C)C(C)C)ccc1OC [nitrate salt of aliskiren]
water absorption or loss ([1]; DVS conditions employed, measurement error about 0.1%): no measurable water absorption or loss
hygroscopicity ([1]; DVS, up to 95% RH): non-hygroscopic
moisture uptake ([1]; at 95% RH): 0.3%
Change in Mass (%) Desorption ([1]; relative humidity 0%): −0.0060%
Change in Mass (%) Sorption ([1]; relative humidity 0%, 39.4 mg sample): 0.0001%
Change in Mass (%) Desorption ([1]; relative humidity 25%): 0.0326%
Change in Mass (%) Sorption ([1]; relative humidity 25%): 0.0269%
Change in Mass (%) Desorption ([1]; relative humidity 50%): 0.0842%
Change in Mass (%) Sorption ([1]; relative humidity 50%): 0.0821%
Change in Mass (%) Desorption ([1]; relative humidity 75%): 0.1495%
Change in Mass (%) Sorption ([1]; relative humidity 75%): 0.1425%
Change in Mass (%) Desorption ([1]; relative humidity 85%): 0.1938%
Change in Mass (%) Sorption ([1]; relative humidity 85%): 0.1864%
Change in Mass (%) Desorption ([1]; relative humidity 95%): 0.3091%
Change in Mass (%) Sorption ([1]; relative humidity 95%): 0.3091%
Total Impurities (HPLC-UV, 230 nm), % ([2]; 1 week, 50 C. sealed, listed as Nitrate): 1.0%
Total Impurities (HPLC-UV, 230 nm), % ([2]; 1 week, 50 C./75% RH, listed as Nitrate): 1.0%
Total Impurities (HPLC-UV, 230 nm), % ([2]; 1 week, 80 C. sealed, listed as Nitrate): 1.0%
Total Impurities (HPLC-UV, 230 nm), % ([2]; 1 week, 80 C./75% RH, listed as Nitrate): 1.1%
water content [3]: remains constant

COCCCOc1cc(C[C@@H](C[C@H](N)[C@@H](O)C[C@H](C(=O)NCC(C)(C)C(N)=O)C(C)C)C(C)C)ccc1OC [HemiFumarate]
Total Impurities (HPLC-UV, 230 nm), % ([2]; 1 week, 50 C. sealed): 1.1%
Total Impurities (HPLC-UV, 230 nm), % ([2]; 1 week, 50 C./75% RH): 9.3%
Total Impurities (HPLC-UV, 230 nm), % ([2]; 1 week, 80 C. sealed): 18.1%
Total Impurities (HPLC-UV, 230 nm), % ([2]; 1 week, 80 C./75% RH): 64.3%
Total Impurities (HPLC-UV, 230 nm), % ([2]; Unstressed): 1.1%

COCCCOc1cc(C[C@@H](C[C@H](N)[C@@H](O)C[C@H](C(=O)NCC(C)(C)C(N)=O)C(C)C)C(C)C)ccc1OC [aliskiren, 2(S),4(S),5(S),7(S)—N-(3-amino-2,2-dimethyl-3-oxopropyl)-2,7-di(1-methylethyl)-4-hydroxy-5-amino-8-[4-methoxy-3-(3-methoxy-propoxy)phenyl]-octanamide]
hygroscopicity [4]: highly hygroscopic
pKa [5]: 9.79
